This note sets out measurements from ChEMBL document CHEMBL5346962, “Discovery of Sulanemadlin (ALRN-6924), the First Cell-Permeating, Stabilized α-Helical Peptide in Clinical Development” (J Med Chem, 2023).

pEC50: −log10 of the molar value. The source made the active and inactive calls. The rule behind the calls is not given here.

Series [1] deals with SJSA-1. The experiment in a line: Cytotoxicity against human SJSA-1 cells incubated for 72 hrs in presence of 10% FBS by MTT assay. Particulars: SJSA-1, 72 h.
The subject of series [2] is Fibroblast. The experiment in a line: Protection against chemotherapy-induced apoptosis in human fibroblast assessed as decrease in caspase-3/7 level preincubated for 16 hrs followed by doxorubicin addition measured after 32 hrs. The format is functional, cell-based. Particulars: dose 4.6-10 µM, time 48.0 hrs.
The subject of series [3] is Fibroblast. The experiment in a line: Protection against apoptosis in human fibroblast assessed as decrease in chemotherapy-induced caspase-3/7 level preincubated for 16 hrs followed by etoposide addition measured after 32 hrs. The format is functional, cell-based. As to conditions: dose 4.6-10 µM, time 48.0 hrs.
Series [4] has as its system Fibroblast. The experiment in a line: Protection against chemotherapy-induced apoptosis in human fibroblast assessed as decrease in caspase-3/7 level preincubated for 16 hrs followed by SN-38 addition measured after 32 hrs. Particulars: dose 4.6-10 µM, time 48.0 hrs. Format: functional, cell-based.
Series [5] concerns MCF7. The experiment in a line: Antitumor activity against human MCF7 cells xenografted in athymic nude BALB/c mouse assessed as upregulation of p53 protein level at 20 mg/kg, iv by immunohistochemical analysis. The format is functional, organism-based. As to conditions: time <= 48.0 hrs, TDE = time-dependent effect.
The test system of series [6] is Bone marrow cell. The series is described as follows: Protection against cell cycle arrest at S phase in bone marrow cells of C57BL/6 mouse at 10 mg/kg, iv measured for 8 hrs by FACS analysis. The format is functional, organism-based.
Series [7] concerns Bone marrow cell. The series is described as follows: Upregulation of p21 expression level in bone marrow cells of C57BL/6 mouse at 2.4 mg/kg, iv administered every 8 hrs measured for 16 hrs by immunohistochemical analysis. Format: functional, organism-based.
The subject of series [8] is NCI-H211. The series is described as follows: Antitumor activity against human NCI-H211 cells xenografted in athymic nu/nu mouse assessed as reduction in tumor volume at 8 mg/kg administered on day 0 to 4 and co-administered 30 mins prior to topotecan on day 1 to 4 followed by topotecan administration on day 5 measured for 90 days. The format is functional, organism-based. Particulars: time 90.0 day.

Series [9] in a line: Cmax in rat at 2.5 mg/kg by LC-MS/MS analysis. Format: ADME, organism-based. The arrangement: dose 2.5 mg/kg. As to conditions: in vivo.
Series [10] is described as follows: Clearance in rat at 5 mg/kg by LC-MS/MS analysis. The format is ADME, organism-based. As to conditions: in vivo.
A short description of series [11]: Clearance in rat at 10 mg/kg by LC-MS/MS analysis. Format: ADME, organism-based. As to conditions: in vivo.
The nature of series [12]: Cmax in cynomolgous monkey at 5 mg/kg by LC-MS/MS analysis. Format: ADME, organism-based, Macaca fascicularis. Also on record: dose 5 mg/kg. Particulars: cynomolgus monkey, in vivo.
The nature of series [13]: AUC (all) in cynomolgous monkey at 5 mg/kg by LC-MS/MS analysis. Particulars: cynomolgus monkey, in vivo. Format: ADME, organism-based, Macaca fascicularis. The arrangement: dose 5 mg/kg.
A short description of series [14]: Plasma protein binding in rat at 250 uM. The format is ADME, cell-free. Particulars: read-out: PPB (converted).
Series [15] in a line: Drug uptake in tumor of athymic nu/nu mouse xenografted with human SJSA-1 cells assessed as AUC (0 to 24 hrs) of metabolite ALRN-8714 at 25 mg/kg, iv measured for 24 hrs by LC-MS-MS analysis. Format: ADME, organism-based, Neoplasm. Also on record: dose 25 mg/kg, time 24 hrs, route iv. As to conditions: in vivo.

As to `CC(=O)N[C@@H](CC(C)C)C(=O)N[C@H](C(=O)N[C@@H](Cc1ccccc1)C(=O)N[C@]1(C)CCCCCC/C=C/CCC[C@@](C)(C(=O)N[C@@H](C)C(=O)N[C@@H](C)C(=O)N[C@@H](C)C(=O)N[C@@H](C)C(=O)N[C@@H](C)C(=O)N[C@H](C)C(N)=O)NC(=O)[C@H](CC(C)C)NC(=O)[C@H](CCC(N)=O)NC(=O)[C@H](C)NC(=O)[C@H](Cc2c[nH]c3ccccc23)NC(=O)[C@H](Cc2ccc(O)cc2)NC(=O)[C@H](CCC(=O)O)NC1=O)[C@@H](C)O`, in series [1], the negative-log EC50 (pEC50) was 6.52. Moreover, the Activity result is “Dose-Dependent Effect” in [2], “Dose-Dependent Effect” in series [3], “Dose-Dependent Effect” in series [4] and “Tde” in series [5]. Also, the result in [6], in series [7] and in series [8] was Active. The Cmax in [9] was 49.9 µg/mL; in series [12], 137 µg/mL. Further, the figures for the clearance in series [10] and in series [11] were 0.4 mL/min/kg and 0.317 mL/min/kg, respectively. Also, the AUC in [13] was determined as 914 µg·h/mL; in series [15], 128 µg·h/g. Moreover, in series [14], the fraction unbound at 250 µM was 0.02.
